Reference: patent US20230382925A1, “MODULATORS OF CYSTIC FIBROSIS TRANSMEMBRANE CONDUCTANCE REGULATOR” (VERTEX PHARMACEUTICALS INCORPORATED, priority 2020, published 2023)

Legend:
CFTR [1] = biological target: T1, CFTR (Homo sapiens, UniProt P13569); experiment: Membrane Potential Dye, Enteroid Assay A; format: cell-based; conditions: for EC50: read-out: Ent. A EC50
Procedure, shortened: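 Primary human intestinal enteroid cells exposed to compound for 18–24 hours at 37 °C, then loaded 25 min with methyl oxonol membrane potential dye plus CaCC inhibitors. Chloride transport triggered in chloride-free buffer with 10 μM forskolin, 100 μM IBMX and 300 nM Compound III, fluorescence read 15 min; % Activity relative to a triple-combination corrector/potentiator control.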

CFTR [2] = biological target: T1, CFTR; experiment: Membrane Potential Dye, Enteroid Assay B; format: cell-based; conditions: for EC50: read-out: Ent. B EC50
Procedure, shortened: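 Human intestinal enteroid cells exposed to compound 18-24 h at 37 °C, then loaded with methyl oxonol membrane-potential dye plus CaCC blockers. Chloride transport triggered in chloride-free buffer with 10 μM forskolin, 100 μM IBMX, 300 nM Compound III; fluorescence read 15 min, expressed as % of triple-corrector/potentiator combination control.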

T1 sequence (P13569 with tags, fused parts or gaps DEL508-508): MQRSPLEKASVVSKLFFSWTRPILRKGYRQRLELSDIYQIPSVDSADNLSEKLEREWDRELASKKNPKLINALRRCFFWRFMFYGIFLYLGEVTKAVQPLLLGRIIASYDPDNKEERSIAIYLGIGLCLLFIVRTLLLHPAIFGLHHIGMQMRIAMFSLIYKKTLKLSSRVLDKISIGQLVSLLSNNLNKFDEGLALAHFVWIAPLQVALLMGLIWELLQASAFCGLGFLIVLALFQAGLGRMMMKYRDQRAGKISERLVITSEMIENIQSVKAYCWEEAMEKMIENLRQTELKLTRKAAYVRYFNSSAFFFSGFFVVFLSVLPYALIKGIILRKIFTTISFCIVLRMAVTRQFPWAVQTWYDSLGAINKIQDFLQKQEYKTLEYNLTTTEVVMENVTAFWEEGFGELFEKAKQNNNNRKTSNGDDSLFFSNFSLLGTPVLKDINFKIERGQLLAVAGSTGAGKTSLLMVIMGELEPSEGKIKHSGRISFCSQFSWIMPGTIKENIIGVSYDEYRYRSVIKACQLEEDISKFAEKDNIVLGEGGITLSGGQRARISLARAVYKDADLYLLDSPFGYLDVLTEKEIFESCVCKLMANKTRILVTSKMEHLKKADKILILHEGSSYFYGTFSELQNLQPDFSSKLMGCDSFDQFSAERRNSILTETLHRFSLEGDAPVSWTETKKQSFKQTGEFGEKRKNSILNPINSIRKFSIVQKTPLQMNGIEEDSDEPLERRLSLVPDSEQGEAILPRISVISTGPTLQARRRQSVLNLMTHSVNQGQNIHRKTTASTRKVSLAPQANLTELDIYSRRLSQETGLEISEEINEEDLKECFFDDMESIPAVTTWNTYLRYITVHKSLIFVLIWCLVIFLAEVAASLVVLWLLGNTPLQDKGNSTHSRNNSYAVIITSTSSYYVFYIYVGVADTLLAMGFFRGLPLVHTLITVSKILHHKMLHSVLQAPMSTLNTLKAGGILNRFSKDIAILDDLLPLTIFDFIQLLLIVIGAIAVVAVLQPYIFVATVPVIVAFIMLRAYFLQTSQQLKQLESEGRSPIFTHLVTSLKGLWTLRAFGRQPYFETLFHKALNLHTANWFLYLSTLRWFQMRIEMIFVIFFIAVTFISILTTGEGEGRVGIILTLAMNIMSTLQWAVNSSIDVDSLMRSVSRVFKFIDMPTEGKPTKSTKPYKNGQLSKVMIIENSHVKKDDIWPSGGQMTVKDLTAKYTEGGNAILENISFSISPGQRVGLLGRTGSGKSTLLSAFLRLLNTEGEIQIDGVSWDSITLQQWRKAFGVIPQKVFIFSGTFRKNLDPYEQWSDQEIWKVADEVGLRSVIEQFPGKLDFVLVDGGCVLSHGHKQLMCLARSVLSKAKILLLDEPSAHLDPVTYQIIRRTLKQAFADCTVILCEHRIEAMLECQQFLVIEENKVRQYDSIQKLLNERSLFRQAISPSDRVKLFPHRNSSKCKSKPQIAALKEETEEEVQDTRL

Cc1cccc(C)c1-c1cc2nc(n1)NS(=O)(=O)c1cccc(c1)C(=O)N(C1CC3(CCN(C(=O)OC(C)C)CC3)C1)[C@H](CC(C)C)CO2 [Compound 21, Isopropyl 2-[(11R)-6-(2,6-dimethylphenyl)-11-isobutyl-2,2,13-trioxo-9-oxa-2λ^6-thia-3,5,12,19-tetrazatricyclo[12.3.1.14,8]nonadeca-1(18),4(19),5,7,14,16-hexaen-12-yl]-7-azaspiro[3.5]nonane-7-carboxylate]
Ent. A Max Activity (%) (CFTR [1]): +++ (+++ is >60%) | EC50 (CFTR [1]): < 1000 nM | Ent. B Max Activity (%) (CFTR [2]): +++ (+++ is >60%) | EC50 (CFTR [2]): < 1000 nM

COCCN1CCC2(CC1)CC(N1C(=O)c3cccc(c3)S(=O)(=O)Nc3nc(cc(-c4c(C)cccc4C)n3)OC[C@H]1CC(C)C)C2 [Compound 22, (11R)-6-(2,6-dimethylphenyl)-11-isobutyl-12-[7-(2-methoxyethyl)-7-azaspiro[3.5]nonan-2-yl]-2,2-dioxo-9-oxa-2λ^6-thia-3,5,12,19-tetrazatricyclo[12.3.1.14,8]nonadeca-1(18),4(19),5,7,14,16-hexaen-13-one]
Ent. A Max Activity (%) (CFTR [1]): +++ (+++ is >60%) | EC50 (CFTR [1]): < 1000 nM | Ent. B Max Activity (%) (CFTR [2]): +++ (+++ is >60%) | EC50 (CFTR [2]): < 1000 nM

Cc1cccc(C)c1-c1cc2nc(n1)NS(=O)(=O)c1cccc(c1)C(=O)N(C1CN(C(=O)OCc3ccccc3)C1)[C@H](CC(C)C)CO2 [Compound 100, Benzyl 3-[(11R)-6-(2,6-dimethylphenyl)-11-isobutyl-2,2,13-trioxo-9-oxa-2λ^6-thia-3,5,12,19-tetrazatricyclo[12.3.1.14,8]nonadeca-1(18),4(19),5,7,14,16-hexaen-12-yl]azetidine-1-carboxylate]
Ent. A Max Activity (%) (CFTR [1]): +++ (+++ is >60%) | EC50 (CFTR [1]): < 1000 nM | Ent. B Max Activity (%) (CFTR [2]): +++ (+++ is >60%) | EC50 (CFTR [2]): < 1000 nM

Cc1cccc(C)c1-c1cc2nc(n1)NS(=O)(=O)c1cccc(c1)C(=O)N(C1CN(C3CC4(CC4)C3)C1)[C@H](CC(C)C)CO2 [Compound 101, (11R)-6-(2,6-Dimethylphenyl)-11-isobutyl-2,2-dioxo-12-(1-spiro[2.3]hexan-5-ylazetidin-3-yl)-9-oxa-2λ^6-thia-3,5,12,19-tetrazatricyclo[12.3.1.14,8]nonadeca-1(18),4(19),5,7,14,16-hexaen-13-one]
Ent. A Max Activity (%) (CFTR [1]): +++ (+++ is >60%) | EC50 (CFTR [1]): < 1000 nM | Ent. B Max Activity (%) (CFTR [2]): +++ (+++ is >60%) | EC50 (CFTR [2]): < 1000 nM

Cc1cccc(C)c1-c1cc2nc(n1)NS(=O)(=O)c1cccc(c1)C(=O)N(C1CC3(CCN(C)CC3)C1)CC(CC(C)C)(CC(C)C)CO2 (centres unmarked) [Compound 311]
Ent. A Max Activity (%) (CFTR [1]): +++ (+++ is >60%) | EC50 (CFTR [1]): < 1000 nM | Ent. B Max Activity (%) (CFTR [2]): +++ (+++ is >60%) | EC50 (CFTR [2]): < 1000 nM

Cc1cccc(C)c1-c1cc2nc(n1)NS(=O)(=O)c1cccc(c1)C(=O)N([C@H]1CC3(C[C@H](N(C)C)C3)C1)[C@H](CC(C)C)CO2 (some centres unmarked) [Compound 313]
Ent. A Max Activity (%) (CFTR [1]): +++ (+++ is >60%) | EC50 (CFTR [1]): < 1000 nM | Ent. B Max Activity (%) (CFTR [2]): +++ (+++ is >60%) | EC50 (CFTR [2]): < 1000 nM

CCOC(=O)N1CCC2(CC1)CC(N1C(=O)c3cccc(c3)S(=O)(=O)Nc3nc(cc(-c4c(C)cccc4C)n3)OC[C@H]1CC(C)C)C2 [Compound 315]
Ent. A Max Activity (%) (CFTR [1]): +++ (+++ is >60%) | EC50 (CFTR [1]): < 1000 nM | Ent. B Max Activity (%) (CFTR [2]): +++ (+++ is >60%) | EC50 (CFTR [2]): < 1000 nM

Cc1cccc(C)c1-c1cc2nc(n1)NS(=O)(=O)c1cccc(c1)C(=O)N(C1CN(C(C)C)C1)[C@H](CC(C)C)CO2 [Compound 319]
Ent. A Max Activity (%) (CFTR [1]): +++ (+++ is >60%) | EC50 (CFTR [1]): < 1000 nM | Ent. B Max Activity (%) (CFTR [2]): +++ (+++ is >60%) | EC50 (CFTR [2]): < 1000 nM

Cc1cccc(C)c1-c1cc2nc(n1)NS(=O)(=O)c1cccc(c1)C(=O)N(C1CC3(CCN(CCF)CC3)C1)[C@H](CC(C)C)CO2 [Compound 321]
Ent. A Max Activity (%) (CFTR [1]): +++ (+++ is >60%) | EC50 (CFTR [1]): < 1000 nM | Ent. B Max Activity (%) (CFTR [2]): +++ (+++ is >60%) | EC50 (CFTR [2]): < 1000 nM

COC(=O)N1CCCCC12CC(N1C(=O)c3cccc(c3)S(=O)(=O)Nc3nc(cc(-c4c(C)cccc4C)n3)OC[C@H]1CC(C)C)C2 (some centres unmarked) [Compound 323]
Ent. A Max Activity (%) (CFTR [1]): +++ (+++ is >60%) | EC50 (CFTR [1]): < 1000 nM | Ent. B Max Activity (%) (CFTR [2]): +++ (+++ is >60%) | EC50 (CFTR [2]): < 1000 nM

COC(=O)NC1CC2(C1)CC(N1C(=O)c3cccc(c3)S(=O)(=O)Nc3nc(cc(-c4c(C)cccc4C)n3)OC[C@H]1CC(C)C)C2 (some centres unmarked) [Compound 326]
Ent. A Max Activity (%) (CFTR [1]): +++ (+++ is >60%) | EC50 (CFTR [1]): < 1000 nM | Ent. B Max Activity (%) (CFTR [2]): +++ (+++ is >60%) | EC50 (CFTR [2]): < 1000 nM

Cc1cccc(C)c1-c1cc2nc(n1)NS(=O)(=O)c1cccc(c1)C(=O)N(C1CN(C(=O)OC(C)(C)C)C1)[C@H](CC(C)C)CO2 [Compound 334]
Ent. A Max Activity (%) (CFTR [1]): +++ (+++ is >60%) | EC50 (CFTR [1]): < 1000 nM | Ent. B Max Activity (%) (CFTR [2]): ++ (++ is 30-60%) | EC50 (CFTR [2]): < 1000 nM

Cc1cccc(C)c1-c1cc2nc(n1)NS(=O)(=O)c1cccc(c1)C(=O)N([C@H]1CC3(C[C@@H](CO)C3)C1)[C@H](CC(C)C)CO2 (some centres unmarked) [Compound 337]
Ent. A Max Activity (%) (CFTR [1]): +++ (+++ is >60%) | EC50 (CFTR [1]): < 1000 nM | Ent. B Max Activity (%) (CFTR [2]): +++ (+++ is >60%) | EC50 (CFTR [2]): < 1000 nM

Cc1cccc(C)c1-c1cc2nc(n1)NS(=O)(=O)c1cccc(c1)C(=O)N([C@H]1CC3(C[C@H](C(=O)N(C)C)C3)C1)[C@H](CC(C)C)CO2 (some centres unmarked) [Compound 343]
Ent. A Max Activity (%) (CFTR [1]): +++ (+++ is >60%) | EC50 (CFTR [1]): < 1000 nM | Ent. B Max Activity (%) (CFTR [2]): +++ (+++ is >60%) | EC50 (CFTR [2]): < 1000 nM

Cc1cccc(C)c1-c1cc2nc(n1)NS(=O)(=O)c1cccc(c1)C(=O)N([C@H]1C[C@@H](NC(=O)OC(C)(C)C)C1)[C@H](CC(C)C)CO2 [Compound 349]
Ent. A Max Activity (%) (CFTR [1]): +++ (+++ is >60%) | EC50 (CFTR [1]): < 1000 nM | Ent. B Max Activity (%) (CFTR [2]): ++ (++ is 30-60%) | EC50 (CFTR [2]): < 1000 nM

Cc1cccc(C)c1-c1cc2nc(n1)NS(=O)(=O)c1cccc(n1)C(=O)N(C1CC3(CC3)C1)[C@H](CC(C)(C)C)CO2 [Compound 401]
Ent. A Max Activity (%) (CFTR [1]): +++ (+++ is >60%) | EC50 (CFTR [1]): < 1000 nM | Ent. B Max Activity (%) (CFTR [2]): +++ (+++ is >60%) | EC50 (CFTR [2]): < 1000 nM

Cc1cccc(C)c1-c1cc2nc(n1)NS(=O)(=O)c1cccc(c1)C(=O)N(C1CC3(CC3)C1)[C@@H](CC(C)C)CO2 [Compound 474, (11S)-6-(2,6-Dimethylphenyl)-11-isobutyl-2,2-dioxo-12-spiro[2.3]hexan-5-yl-9-oxa-2λ^6-thia-3,5,12,19-tetrazatricyclo[12.3.1.14,8]nonadeca-1(18),4(19),5,7,14,16-hexaen-13-one]
Ent. A Max Activity (%) (CFTR [1]): ++ (++ is 30-60%) | EC50 (CFTR [1]): < 1000 nM | Ent. B Max Activity (%) (CFTR [2]): + (+ is <300%) | EC50 (CFTR [2]): < 1000 nM
